The values below come from patent US9650340B2, “5-fluoro-N-(pyridin-2-yl)pyridin-2-amine derivatives containing a sulfoximine group” (BAYER PHARMA AKTIENGESELLSCHAFT, priority 2012, dated 2017).

The target in experiment [1] is T1, CDK2/CycE (Homo sapiens, UniProt P24941).
T1 construct: GST; purchased ProQinase GmbH (Freiburg, Germany); host or cells: insect cells (Sf9)
Kind of experiment: CDK2/CycE high ATP kinase assay (TR-FRET, 2 mM ATP). It counts as biochemical. Conditions: Method 2b. As for the experimental part: 2b. CDK2/CycE High ATP Kinase Assay:
CDK2/CycE-inhibitory activity of compounds of the present invention at 2 mM adenosine-tri-phosphate (ATP) was quantified employing the CDK2/CycE TR-FRET (TR-FRET=Time Resolved Fluorescence Energy Transfer) assay as described in the following paragraphs.
Recombinant fusion proteins of GST and human CDK2 and of GST and human CycE, expressed in insect cells (Sf9) and purified by Glutathion-Sepharose affinity chromatography, were purchase from ProQinase GmbH (Freiburg, Germany). As substrate for the kinase reaction biotinylated peptide biotin-Ttds-[…] (C-terminus in amid form) was used which can be purchased e.g. form the company JERINI peptide technologies (Berlin, Germany).
(§1) For the assay 50 nl of a 100 fold concentrated solution of the test compound in DMSO was pipetted into a black low volume 384 well microtiter plate (Greiner Bio-One, Frickenhausen, Germany), 2 μl of a solution of CDK2/CycE in aqueous assay buffer [50 mM Tris/HCl pH 8.0, 10 mM MgCl2, 1.0 mM dithiothreitol, 0.1 mM sodium ortho-vanadate, 0.01% (v/v) Nonidet-P40 (Sigma)] were added and the mixture was incubated for 15 min at 22° C. to allow pre-binding of the test compounds to the enzyme before the start of the kinase reaction. Then the kinase reaction was started by the addition of 3 μl of a solution ATP (3.33 mM=>final conc. in the 5 μl assay volume is 2 mM) and substrate (1.25 μM=>final conc. in the 5 μl assay volume is 0.75 μM) in assay buffer and the resulting mixture was incubated for a reaction time of 25 min at 22° C. The concentration of CDK2/CycE was adjusted depending of the activity of the enzyme lot and was chosen appropriate to have the assay in the linear range, typical concentrations were in the range of 15 ng/ml. The reaction was stopped by the addition of 5 μl of a solution of TR-FRET detection reagents (0.2 μM streptavidine-XL665 [Cisbio Bioassays, Codolet, France] and 1 nM anti-RB(pSer807/pSer811)-antibody from BD Pharmingen [#558389] and 1.2 nM LANCE EU-W1024 labeled anti-mouse IgG antibody [Perkin-Elmer, product no. AD0077, as an alternative a Terbium-cryptate-labeled anti-mouse IgG antibody from Cisbio Bioassays can be used]) in an aqueous EDTA-solution (100 mM EDTA, 0.2% (w/v) bovine serum albumin in 100 mM HEPES/NaOH pH 7.0).
(§2) The resulting mixture was incubated 1 h at 22° C. to allow the formation of complex between the phosphorylated biotinylated peptide and the detection reagents. Subsequently the amount of phosphorylated substrate was evaluated by measurement of the resonance energy transfer from the Eu-chelate to the streptavidine-XL. Therefore, the fluorescence emissions at 620 nm and 665 nm after excitation at 350 nm were measured in a TR-FRET reader, e.g. a Rubystar (BMG Labtechnologies, Offenburg, Germany) or a Viewlux (Perkin-Elmer). The ratio of the emissions at 665 nm and at 622 nm was taken as the measure for the amount of phosphorylated substrate.

Experiment [2] has as its target T1, CDK2/CycE. The experiment is described as follows: CDK2/CycE kinase assay (TR-FRET, 10 μM ATP). Format: biochemical. Conditions: Method 2 (2a).
Description: 2a. CDK2/CycE Kinase Assay:
CDK2/CycE-inhibitory activity of compounds of the present invention was quantified employing the CDK2/CycE TR-FRET assay as described in the following paragraphs:
Recombinant fusion proteins of GST and human CDK2 and of GST and human CycE, expressed in insect cells (Sf9) and purified by Glutathion-Sepharose affinity chromatography, were purchased from ProQinase GmbH (Freiburg, Germany). As substrate for the kinase reaction biotinylated peptide biotin-Ttds-[…] (C-terminus in amid form) was used which can be purchased e.g. form the company JERINI Peptide Technologies (Berlin, Germany).
as §1, with “of adenosine-tri-phosphate (ATP, 16.7 μM=>final” for “ATP (3.33 mM=>final”, “10 μM)” for “2 mM)”, “130 ng/mL” for “15 ng/ml.”, “AD0077])” for “AD0077, as an alternative a Terbium-cryptate-labeled anti-mouse IgG antibody from Cisbio Bioassays can be used])”
as §2, with “was” for “were”

Where a name gives a salt, the structure may show the parent alone.

As to `CCNC(=O)N=S(C)(=O)Cc1ccnc(Nc2cc(-c3ccc(F)cc3OC)c(F)cn2)c1` (racemic) [Example 12, (rac)-1-Ethyl-3-{[(2-{[5-fluoro-4-(4-fluoro-2-methoxyphenyl)pyridin-2-yl]amino}pyridin-4-yl)methyl](methyl)oxido-λ^6-sulfanylidene}urea], the IC50 against CDK2/CycE [1] was found to be 3070 nM; at CDK2/CycE [2] it was 140 nM.

Regarding `COc1cc(F)ccc1-c1cc(Nc2cc(CS(C)(=N)=O)ccn2)ncc1F` (single isomer, unassigned; enantiomer 1) [Example 16, 5-Fluoro-4-(4-fluoro-2-methoxyphenyl)-N-{4-[(S-methylsulfonimidoyl)methyl]pyridin-2-yl}pyridin-2-amine hydrochloride; enantiomer 1], the IC50 on CDK2/CycE [1] was found to be 5150 nM; against CDK2/CycE [2], 430 nM.

Regarding `COc1cc(F)ccc1-c1cc(Nc2cc(CS(C)(=N)=O)ccn2)ncc1F.Cl` (single isomer, unassigned; enantiomer 2) [Example 14, 5-Fluoro-4-(4-fluoro-2-methoxyphenyl)-N-{4-[(S-methylsulfonimidoyl)methyl]pyridin-2-yl}pyridin-2-amine hydrochloride; enantiomer 2], the IC50 against CDK2/CycE [1] was found to be 3410 nM; at CDK2/CycE [2], 200 nM.

Consider `COc1cc(F)ccc1-c1cc(Nc2cc(CS(C)(=N)=O)cc(C(F)(F)F)n2)ncc1F` (racemic) [Example 21, (rac)-5-Fluoro-4-(4-fluoro-2-methoxyphenyl)-N-{4-[(S-methylsulfonimidoyl)methyl]-6-(trifluoromethyl)pyridin-2-yl}pyridin-2-amine], for which the IC50 against CDK2/CycE [1] came to 133 nM; against CDK2/CycE [2], 11 nM.

For `CCOC(=O)N=S(C)(=O)Cc1cc(Nc2cc(-c3ccc(F)cc3OC)c(F)cn2)nc(OC)c1` (racemic) [Example 15, (rac)-ethyl{[(2-{[5-fluoro-4-(4-fluoro-2-methoxyphenyl)pyridin-2-yl]amino}-6-methoxypyridin-4-yl)methyl](methyl)oxido-λ^6-sulfanylidene}carbamate], the IC50 against CDK2/CycE [1] was 123 nM; against CDK2/CycE [2], 10 nM.

On to `COc1cc(F)ccc1-c1cc(Nc2cc(CS(C)(=O)=NC#N)ccn2)ncc1F` (single isomer, unassigned) [Example 10, {[(2-{[5-Fluoro-4-(4-fluoro-2-methoxyphenyl)pyridin-2-yl]amino}pyridin-4-yl)methyl](methyl)oxido-λ^6-sulfanylidene}cyanamide], for which the IC50 at CDK2/CycE [1] came to 1420 nM; at CDK2/CycE [2], 72 nM.

Turning to `COc1cc(F)ccc1-c1cc(Nc2cc(CS(C)(=N)=O)cc(F)n2)ncc1F` (single isomer, unassigned; (+)) [Example 19, (+)-5-Fluoro-4-(4-fluoro-2-methoxyphenyl)-N-{6-fluoro-4-[(S-methylsulfonimidoyl)methyl]pyridin-2-yl}pyridin-2-amine], the IC50 on CDK2/CycE [1] is 1370 nM; on CDK2/CycE [2] it was 94 nM.

On to `COc1cc(F)ccc1-c1cc(Nc2cc(CS(C)(=N)=O)cc(Cl)n2)ncc1F` (racemic) [Example 7, (rac)-N-{6-Chloro-4-[(S-methylsulfonimidoyl)methyl]pyridin-2-yl}-5-fluoro-4-(4-fluoro-2-methoxyphenyl)pyridin-2-amine], for which the IC50 turned out to be 630 nM on CDK2/CycE [1] and 44 nM on CDK2/CycE [2].

Regarding `CCS(=N)(=O)Cc1ccnc(Nc2cc(-c3ccc(F)cc3OC)c(F)cn2)c1` (racemic) [Example 30, (rac)-N-{4-[(S-Ethylsulfonimidoyl)-methyl]pyridin-2-yl}-5-fluoro-4-(4-fluoro-2-methoxyphenyl)pyridin-2-amine], the IC50 was found to be 300 nM on CDK2/CycE [1] and 210 nM against CDK2/CycE [2].

With `CCOc1cc(F)ccc1-c1cc(Nc2cc(CS(C)(=N)=O)cc(F)n2)ncc1F` (single isomer, unassigned; (-)) [Example 29, (−)-4-(2-Ethoxy-4-fluorophenyl)-5-fluoro-N-{6-fluoro-4-[(S-methylsulfonimidoyl)methyl]pyridin-2-yl}pyridin-2-amine], the figures for the 50% inhibitory concentration (IC50) on CDK2/CycE [1] and at CDK2/CycE [2] were 1710 nM and 98 nM, respectively.

As for `COc1cc(F)ccc1-c1cc(Nc2cc(CS(C)(=N)=O)cc(C(F)(F)F)n2)ncc1F` (single isomer, unassigned; (+)) [Example 22, (+)-5-Fluoro-4-(4-fluoro-2-methoxyphenyl)-N-{4-[(S-methylsulfonimidoyl)methyl]-6-(trifluoromethyl)pyridin-2-yl}pyridin-2-amine], the IC50 is 233 nM against CDK2/CycE [1] and 18 nM at CDK2/CycE [2].

On to `COc1cc(F)ccc1-c1cc(Nc2cc(CS(C)(=N)=O)ccn2)ncc1F` (racemic) [Example 1, (rac)-5-Fluoro-4-(4-fluoro-2-methoxyphenyl)-N-{4-[(S-methylsulfonimidoyl)methyl]pyridin-2-yl}pyridin-2-amine], for which the values for the IC50 at CDK2/CycE [1] and against CDK2/CycE [2] were 5860 nM and 410 nM, respectively.

Take `COc1cc(F)ccc1-c1cc(Nc2cc(CS(C)(=N)=O)cc(C)n2)ncc1F` (racemic) [Example 4, (rac)-5-Fluoro-4-(4-fluoro-2-methoxyphenyl)-N-{6-methyl-4-[(S-methylsulfonimidoyl)methyl]pyridin-2-yl}pyridin-2-amine]: the figures for the IC50 at CDK2/CycE [1] and against CDK2/CycE [2] were 1010 nM and 120 nM, respectively.

With `COc1cc(F)ccc1-c1cc(Nc2cc(CS(C)(=N)=O)cc(F)n2)ncc1F` (single isomer, unassigned; (-)) [Example 20, (−)-5-Fluoro-4-(4-fluoro-2-methoxyphenyl)-N-{6-fluoro-4-[(S-methylsulfonimidoyl)methyl]pyridin-2-yl}pyridin-2-amine], the IC50 is 815 nM against CDK2/CycE [1] and 72 nM at CDK2/CycE [2].

As for `COc1cc(F)ccc1-c1cc(Nc2cc(CS(C)(=N)=O)ccn2)ncc1F` (single isomer, unassigned; (+)) [Example 2, (+)-5-Fluoro-4-(4-fluoro-2-methoxyphenyl)-N-{4-[(S-methylsulfonimidoyl)methyl]pyridin-2-yl}pyridin-2-amine], the IC50 was found to be 2920 nM against CDK2/CycE [1] and 360 nM against CDK2/CycE [2].
